Experimental data from patent US8710243B2, “Estrogen receptor ligands” (Karo Bio AB, priority 2009, dated 2014).

Molecular target: T1, human estrogen receptor beta (Homo sapiens, UniProt Q92731)
T1 construct: expressed in transfected cells; host or cells: HEK293 (CRL-1573)
Assay: Transactivation Assay 2 in human embryonic kidney 293 cells stably transfected with pERE2-ALP and human estrogen receptor beta
Assay type: cell-based
Conditions: read-out: potency at the estrogen receptor β-subtype, EC50
Protocol: Transactivation Assay 2: Transactivation Assay in Human Embryonic Kidney 293 Cells Stably Transfected with pERE2-ALP and Human Estrogen Receptor Beta
Generation of stable HEK293 cell lines (CRL-1573; American Type Culture Collection) expressing the reporter vector pERE2-ALP and human estrogen receptor beta (hERβ 530) have been described (Mol Pharmacol 1998, 54, 105-112; Endocrinology 2002, 143, 1558-1561).
The cells were seeded in 384-well plates at 12 500 cells per well in Ham's F12 Coon's modification (without phenol red) with 10% dextran-coated charcoal treated (DCC) fetal bovine serum (FBS), 2 mM L-glutamine and 50 μg/ml gentamicin. After 24 h incubation (37° C., 5% CO2) the seeding medium was discarded and replaced with 20 μl Ham's F12 Coon's modification (without phenol red) with 1.5% DCC-FCS, 2 mM L-glutamine and supplemented with 100 U/ml penicillin and 100 μg/ml streptomycin. The selected compounds were added to the wells in 12 concentrations ranging from […] to 33 μM. The compounds were dissolved in 100% dimethylsulfoxide (DMSO) and the final concentration of DMSO in the assay was 0.1%. After 72 h incubation (37° C., 5% CO2) the medium was assayed for ALP activity by a chemiluminescence assay; a 10 μl aliquot of the conditioned medium was mixed with 100 μl assay buffer (0.1 M diethanolamine, 1 mM MgC12) and 0.5 mM disodium 3-(4-methoxyspiro 1,2-dioxetane-3,2′-(5′-chloro)-tricyclo[3.3.1.13,7]decan-4-yl)phenyl phosphate (CSPD) (Tropix, Applied Biosystems) and incubated for 20 min at 37° C. and 15 min at room temperature before measurement of the chemiluminescent signal (one second per well) in a Wallac Microbeta Trilux 1450-028 (PerkinElmer). The ALP activity expressed in LCPS is directly proportional to the level of ALP expressed by the cells. The half maximal effective concentrations of the test compounds (EC50) were calculated from the curves fitted to the concentration-response data with a four parameter logistic model in XLfit software version 2.0 (IDBS) or later.

T1 sequence (Q92731 whole entry): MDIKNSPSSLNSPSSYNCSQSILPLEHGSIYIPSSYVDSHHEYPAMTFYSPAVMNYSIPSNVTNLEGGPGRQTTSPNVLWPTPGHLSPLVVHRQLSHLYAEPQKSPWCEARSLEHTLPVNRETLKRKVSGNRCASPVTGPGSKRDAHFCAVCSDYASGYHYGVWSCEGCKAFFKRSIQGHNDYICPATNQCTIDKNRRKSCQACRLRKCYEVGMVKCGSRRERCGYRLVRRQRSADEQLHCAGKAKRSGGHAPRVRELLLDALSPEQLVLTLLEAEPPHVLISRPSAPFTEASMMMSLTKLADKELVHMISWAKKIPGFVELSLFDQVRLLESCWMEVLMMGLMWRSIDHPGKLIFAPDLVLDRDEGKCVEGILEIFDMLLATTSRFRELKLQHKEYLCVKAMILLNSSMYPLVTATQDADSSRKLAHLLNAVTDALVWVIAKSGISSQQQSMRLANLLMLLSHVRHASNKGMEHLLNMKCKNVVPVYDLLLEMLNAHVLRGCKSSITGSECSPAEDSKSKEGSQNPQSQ

Question: With `CCNC(=O)n1c(-c2c(C)noc2C)c(-c2ccc(O)cc2)c2ccccc21` [Example 8, 2-(3,5-dimethylisoxazol-4-yl)-N-ethyl-3-(4-hydroxyphenyl)-1H-indole-1-carboxamide] as the molecule, how does the EC50 read?
Answer: 0.1 to 10 nM

Question: How did the EC50 turn out when `Cc1noc(C)c1-c1c(-c2ccc(O)cc2)c2ccccc2n1C(N)=NO` [Example 2, 2-(3,5-dimethylisoxazol-4-yl)-N′-hydroxy-3-(4-hydroxyphenyl)-1H-indole-1-carboximidamide] was run?
Answer: 0.1 to 10 nM

Question: Which EC50 does the source give for `Cc1noc(C)c1-c1c(-c2ccc(O)cc2)c2cc(Cl)ccc2n1C(N)=NO` [Example 22, 5-chloro-2-(3,5-dimethylisoxazol-4-yl)-N′-hydroxy-3-(4-hydroxyphenyl)-1H-indole-1-carboximidamide] here?
Answer: 0.1 to 10 nM

Question: `Cc1noc(C)c1-c1c(-c2ccc(O)cc2)c2ccccc2n1C(N)=O` [Example 3, 2-(3,5-dimethylisoxazol-4-yl)-3-(4-hydroxyphenyl)-1H-indole-1-carboxamide] was tested. Which EC50 did it give?
Answer: 0.1 to 10 nM

Question: With `Cc1noc(C)c1-c1c(-c2ccc(O)cc2F)c2ccccc2n1C(N)=NO` [Example 18, 2-(3,5-dimethylisoxazol-4-yl)-3-(2-fluoro-4-hydroxyphenyl)-N′-hydroxy-1H-indole-1-carboximidamide] as the molecule, how does the EC50 read?
Answer: 0.1 to 10 nM

Question: Which EC50 does the source give for `Cc1noc(C)c1-c1c(-c2cc(F)c(O)cc2F)c2ccccc2n1C(N)=NO` [Example 19, 3-(2,5-difluoro-4-hydroxyphenyl)-2-(3,5-dimethylisoxazol-4-yl)-N′-hydroxy-1H-indole-1-carboximidamide] here?
Answer: 0.1 to 10 nM

Question: `CC=C(C)c1c(-c2ccc(O)cc2)c2ccccc2n1C(N)=NO` (stereo in doubt) [Example 7, 2-((E)-but-2-en-2-yl)-N′-hydroxy-3-(4-hydroxyphenyl)-1H-indole-1-carboximidamide] was tested. Which EC50 did it give?
Answer: 0.1 to 10 nM

Question: `Cc1csc(C)c1-c1c(-c2ccc(O)cc2)c2ccccc2n1C(N)=NO` [Example 10, 2-(2,4-dimethylthiophen-3-yl)-N′-hydroxy-3-(4-hydroxyphenyl)-1H-indole-1-carboximidamide] was tested. Which EC50 did it give?
Answer: 0.1 to 10 nM

Question: For `Cc1csc(C)c1-c1c(-c2ccc(O)cc2)c2cc(Cl)ccc2n1C(N)=NO` [Example 21, 5-chloro-2-(2,4-dimethylthiophen-3-yl)-N′-hydroxy-3-(4-hydroxyphenyl)-1H-indole-1-carboximidamide], which EC50 is on record?
Answer: 0.1 to 10 nM

Question: `Cc1coc(C)c1-c1c(-c2ccc(O)cc2)c2ccccc2n1C(N)=NO` [Example 23, 2-(2,4-dimethylfuran-3-yl)-N′-hydroxy-3-(4-hydroxyphenyl)-1H-indole-1-carboximidamide] was tested. Which EC50 did it give?
Answer: 0.1 to 10 nM

Question: `Cc1noc(C)c1-c1c(-c2cc(F)c(O)c(F)c2)c2ccccc2n1C(N)=NO` [Example 16, 3-(3,5-difluoro-4-hydroxyphenyl)-2-(3,5-dimethylisoxazol-4-yl)-N′-hydroxy-1H-indole-1-carboximidamide] was tested. Which EC50 did it give?
Answer: 0.1 to 10 nM

Question: With `Cc1noc(C)c1-c1c(-c2ccc(O)cc2)c2ccccc2n1C=NO` [Example 5, 2-(3,5-dimethylisoxazol-4-yl)-3-(4-hydroxyphenyl)-1H-indole-1-carbaldehyde oxime] as the molecule, how does the EC50 read?
Answer: 0.1 to 10 nM

Question: For `Cc1noc(C)c1-c1c(-c2ccc(O)c(F)c2)c2ccccc2n1C(N)=NO` [Example 20, 2-(3,5-dimethylisoxazol-4-yl)-3-(3-fluoro-4-hydroxyphenyl)-N′-hydroxy-1H-indole-1-carboximidamide], which EC50 is on record?
Answer: 0.1 to 10 nM

Question: For `Cc1noc(C)c1-c1c(-c2ccc(O)cc2)c2ccccc2n1S(C)(=O)=O` [Example 6, 4-(2-(3,5-dimethylisoxazol-4-yl)-1-(methylsulfonyl)-1H-indol-3-yl)phenol], which EC50 is on record?
Answer: 0.1 to 10 nM

Question: With `Cc1nsc(C)c1-c1c(-c2ccc(O)cc2)c2ccccc2n1C(N)=NO` [Example 24, 2-(3,5-dimethylisothiazol-4-yl)-N′-hydroxy-3-(4-hydroxyphenyl)-1H-indole-1-carboximidamide] as the molecule, how does the EC50 read?
Answer: 0.1 to 10 nM

Question: `Cc1cccc(C)c1-c1c(-c2ccc(O)cc2)c2ccccc2n1C(N)=NO` [Example 12, 2-(2,6-dimethylphenyl)-N′-hydroxy-3-(4-hydroxyphenyl)-1H-indole-1-carboximidamide] was tested. Which EC50 did it give?
Answer: 0.1 to 10 nM

Question: How did the EC50 turn out when `Cc1csc(C)c1-c1c(-c2ccc(O)cc2)c2ccccc2n1C(N)=O` [Example 11, 2-(2,4-dimethylthiophen-3-yl)-3-(4-hydroxyphenyl)-1H-indole-1-carboxamide] was run?
Answer: 0.1 to 10 nM
